What all share (assay): Inhibition of cancer cell proliferation (MTT)
What all share (assay type): cell-based, human
Holding throughout (settings): 72 hrs

The subject of one assay is NCI-H23. On the procedure:
(§1) A test was conducted to confirm whether the compounds obtained in the above Examples can inhibit proliferation of human colon carcinoma cell line HCT116, glioblastoma cell lines U-87MG and T98G, neuroblastoma cell lines SH-SYSY and SK-N-SH, and lung cancer cell lines A549 and NCI-H23.
(§2) HCT116, U-87MG, SH-SYSY, SK-N-SH and A549 cells were culured in DMEM medium containing 10% FBS. T98G cells were cultured in MEM medium containing 10% FBS and NCI-H23 cells were cultured in […] medium containing 10% FBS. In order to analyze an inhibition of proliferation, HCT116 cells were dispensed in 2000 cells/well into 96 well plate, and SH-SYSY, SK-N-SH, U-87MG, T98G, A549, and NCI-H23 cells were dispensed in 3000 cells/well into 96 well plate. And then, the cells were cultured at 5% CO2 and 37° C. for 16 hrs to allow the cells to attach to the wells. The compounds of the above Examples were added to each well at a concentration of 0.004, 0.013, 0.04, 0.12, 0.37, 1.1, 3.3, and 10 uM, and the culture volume was adjusted to 100 ul. A control group was treated with dimethylsulfoxide (DMSO) at the same concentration, 0.08%, as used to treat the test compounds. Afterwards, cells were cultured at 5% CO2 and 37° C. for 72 hrs. And then, 10 ul of the solution of MTT (3-(4,5-dimethylthiazol-2-yl)-2,5-diphenyltetrazolium bromide) dissolved in PBS at 5 mg/ml was added to each well to identify viable cells and the cells were cultured for further 2 hrs. The culture solution was removed, 100 ul of DMSO was added to dissolve the formed formazan and then an absorbance was measured at 535 nm. Based on the absorbance of the control cells not treated with the compounds, the amounts of the viable cells according to the concentration of the compounds were calculated. GI50 (growth inhibition 50) value which is the concentration of the compound to inhibit cancer cell proliferation by 50% was calculated using Graphpad Prism 5.0 program.

A further assay deals with HCT116. On the procedure:
as §1, §2

The subject of the next assay is T98G. The method, then: as §1, §2
Another assay deals with U-87MG. The method, then:
as §1, §2

The next assay relates to A549. On the procedure: as §1, §2

The text below walks through data of patent US20200190062A1, “HETEROCYCLIC COMPOUND AND PHARMACEUTICAL COMPOSITION COMPRISING SAME” (BEYONDBIO INC., priority 2015, published 2020).

One may read the GI50 as the concentration at which growth is held to half of that of the control.

Where a name gives a salt, the structure may show the parent alone.

For the compound `Nc1nc(-c2nc(-c3ccnc(N)c3F)ccc2O)cc(C2CCOCC2)n1` [Example 85, 2′-amino-6-(2-amino-6-(tetrahydro-2H-pyran-4-yl)pyrimidin-4-yl)-3′-fluoro-[2,4′-bipyridin]-5-ol 3hydrochloride], the GI50 in the assay with NCI-H23 amounted to 140 nM; with HCT116, 20 nM; in the assay with T98G it was 90 nM; with U-87MG it was 70 nM; in the assay on A549 it was 60 nM.

For the compound `CCN1CCC(c2cc(-c3nc(-c4ccnc(N)c4F)ccc3O)nc(N)n2)CC1` [Example 86, 2′-amino-6-(2-amino-6-(1-ethylpiperidin-4-yl)pyrimidin-4-yl)-3′-fluoro-[2,4′-bipyridin]-5-ol 4hydrochloride], the concentration for 50% growth inhibition (GI50) with NCI-H23 was 50 nM; in the assay with HCT116 it was 10 nM; in the assay on T98G, 190 nM; in the assay with U-87MG, 30 nM; with A549 it was 20 nM.

Regarding `CCCN1CCC(c2cc(-c3nc(-c4ccnc(N)c4F)ccc3O)nc(N)n2)CC1` [Example 87, 2′-amino-6-(2-amino-6-(1-propylpiperidin-4-yl)pyrimidin-4-yl)-3′-fluoro-[2,4′-bipyridin]-5-ol 4hydrochloride], the GI50 with NCI-H23 was 40 nM; in the assay with HCT116, 3 nM; in the assay with T98G it was 20 nM; with U-87MG, 10 nM; with A549 it was 10 nM.

As for `CC(C)N1CCC(c2cc(-c3nc(-c4ccnc(N)c4F)ccc3O)nc(N)n2)CC1` [Example 88, 2′-amino-6-(2-amino-6-(1-isopropylpiperidin-4-yl)pyrimidin-4-yl)-3′-fluoro-[2,4′-bipyridin]-5-ol 4hydrochloride], the GI50 in the assay on NCI-H23 worked out at 40 nM; in the assay with HCT116, 40 nM; in the assay with T98G, 20 nM; with U-87MG it was 10 nM; in the assay on A549, 20 nM.

On to `CCN1CCCC(c2cc(-c3nc(-c4ccnc(N)c4F)ccc3O)nc(N)n2)C1` (centres unmarked) [Example 90, 2′-amino-6-(2-amino-6-(1-ethylpiperidin-3-yl)pyrimidin-4-yl)-3′-fluoro-[2,4′-bipyridin]-5-ol 4hydrochloride], for which the 50% growth inhibitory concentration (GI50) in the assay on NCI-H23 came to 390 nM; in the assay on HCT116, 40 nM; in the assay with T98G it was 190 nM; with U-87MG, 100 nM; in the assay with A549, 110 nM.

Take `CCCN1CCCC(c2cc(-c3nc(-c4ccnc(N)c4F)ccc3O)nc(N)n2)C1` (centres unmarked) [Example 91, 2′-amino-6-(2-amino-6-(1-propylpiperidin-3-yl)pyrimidin-4-yl)-3′-fluoro-[2,4′-bipyridin]-5-ol 4hydrochloride]: the GI50 in the assay on NCI-H23 came out at 50 nM; in the assay with HCT116 it was 20 nM; in the assay with T98G, 70 nM; with U-87MG, 30 nM; with A549 it was 30 nM.

Regarding `CC(C)N1CCCC(c2cc(-c3nc(-c4ccnc(N)c4F)ccc3O)nc(N)n2)C1` (centres unmarked) [Example 92, 2′-amino-6-(2-amino-6-(1-isopropylpiperidin-3-yl)pyrimidin-4-yl)-3′-fluoro[2,4′-bipyridin]-5-ol 4hydrochloride], the GI50 stood at 50 nM in the assay on NCI-H23; 20 nM in the assay with HCT116; 90 nM in the assay with T98G; 30 nM in the assay on U-87MG; 30 nM in the assay with A549.

For `Cc1c(-c2nc(-c3ccnc(N)c3F)ccc2O)nc(N)nc1C1CCN(C)CC1` [Example 93, 2′-amino-6-(2-amino-5-methyl-6-(1-methylpiperidin-4-yl)pyrimidin-4-yl)-3′-fluoro-[2,4′-bipyridin]-5-ol 4hydrochloride], the GI50 stood at 230 nM in the assay with NCI-H23; 70 nM in the assay on HCT116; 100 nM in the assay on T98G; 110 nM in the assay on U-87MG; 100 nM in the assay with A549.

As for `CCN1CCC(c2nc(N)nc(-c3nc(-c4ccnc(N)c4F)ccc3O)c2C)CC1` [Example 94, 2′-amino-6-(2-amino-6-(1-ethylpiperidin-4-yl)-5-methylpyrimidin-4-yl)-3′-fluoro-[2,4′-bipyridin]-5-ol 4hydrochloride], the GI50 worked out at 520 nM with NCI-H23; 150 nM in the assay on HCT116; 480 nM in the assay with T98G; 320 nM with U-87MG; 230 nM in the assay with A549.

Turning to `CCCN1CCC(c2nc(N)nc(-c3nc(-c4ccnc(N)c4F)ccc3O)c2C)CC1` [Example 95, 2′-amino-6-(2-amino-5-methyl-6-(1-propylpiperidin-4-yl)pyrimidin-4-yl)-3′-fluoro-[2,4′-bipyridin]-5-ol 4hydrochloride], the GI50 with NCI-H23 was 150 nM; with HCT116, 60 nM; in the assay with T98G, 160 nM; in the assay with U-87MG, 100 nM; in the assay with A549, 80 nM.

For `Cc1c(-c2nc(-c3ccnc(N)c3F)ccc2O)nc(N)nc1C1CCN(C(C)C)CC1` [Example 96, 2′-amino-6-(2-amino-6-(1-isopropylpiperidin-4-yl)-5-methylpyrimidin-4-yl)-3′-fluoro-[2,4′-bipyridin]-5-ol 4hydrochloride], the GI50 is 210 nM in the assay with NCI-H23; 60 nM in the assay on HCT116; 190 nM in the assay on T98G; 80 nM with U-87MG; 130 nM in the assay with A549.

For the compound `Cc1c(-c2nc(-c3ccnc(N)c3F)ccc2O)nc(N)nc1C1CCCN(C)C1` (centres unmarked) [Example 97], the GI50 in the assay with NCI-H23 turned out to be 290 nM; in the assay on HCT116, 110 nM; with T98G, 160 nM; with U-87MG it was 120 nM; with A549, 160 nM.

Regarding `CCCN1CCCC(c2nc(N)nc(-c3nc(-c4ccnc(N)c4F)ccc3O)c2C)C1` (centres unmarked) [Example 98, 2′-amino-6-(2-amino-5-methyl-6-(1-propylpiperidin-3-yl)pyrimidin-4-yl)-3′-fluoro-[2,4′-bipyridin]-5-ol 4hydrochloride], the GI50 is 2060 nM in the assay with NCI-H23; 890 nM in the assay on HCT116; 1750 nM in the assay with T98G; 970 nM in the assay on U-87MG; 1300 nM in the assay with A549.

In the case of `Cc1cnc(N)nc1-c1nc(-c2ccnc(N)c2F)ccc1O` [Example 100, 2′-amino-6-(2-amino-5-methylpyrimidin-4-yl)-3′-fluoro-[2,4′-bipyridin]-5-ol 3hydrochloride], the GI50 with NCI-H23 was determined as 70 nM; in the assay with HCT116, 30 nM; with T98G it was 50 nM; in the assay on U-87MG, 60 nM; in the assay with A549 it was 70 nM.

With `Cc1nc(N)nc(-c2nc(-c3ccnc(N)c3F)ccc2O)c1C` [Example 101, 2′-amino-6-(2-amino-5,6-dimethylpyrimidin-4-yl)-3′-fluoro-[2,4′-bipyridin]-5-ol 3hydrochloride], the GI50 with NCI-H23 turned out to be 230 nM; in the assay on HCT116, 60 nM; in the assay on T98G, 290 nM; with U-87MG, 230 nM; in the assay on A549, 120 nM.

Regarding `CCc1cnc(N)nc1-c1nc(-c2ccnc(N)c2F)ccc1O` [Example 102, 2′-amino-6-(2-amino-5-ethylpyrimidin-4-yl)-3′-fluoro-[2,4′-bipyridin]-5-ol 3hydrochloride], the GI50 with NCI-H23 was 30 nM; in the assay with HCT116, 10 nM; with T98G it was 20 nM; with U-87MG, 30 nM; with A549, 40 nM.

Turning to `CCCc1cnc(N)nc1-c1nc(-c2ccnc(N)c2F)ccc1O` [Example 103, 2′-amino-6-(2-amino-5-propylpyrimidin-4-yl)-3′-fluoro-[2,4′-bipyridin]-5-ol 3hydrochloride], the GI50 was 20 nM with NCI-H23; 10 nM in the assay with HCT116; 10 nM with T98G; 10 nM with U-87MG; 10 nM in the assay with A549.

As to `CCc1c(-c2nc(-c3ccnc(N)c3F)ccc2O)nc(N)nc1C1CCN(C(C)C)CC1` [Example 105], the GI50 in the assay on NCI-H23 worked out at 90 nM; with HCT116, 30 nM; with T98G, 60 nM; with U-87MG, 40 nM; in the assay with A549 it was 60 nM.

As for `CCCc1c(-c2nc(-c3ccnc(N)c3F)ccc2O)nc(N)nc1C1CCN(C(C)C)CC1` [Example 106, 2′-amino-6-(2-amino-6-(1-isopropylpiperidin-4-yl)-5-propylpyrimidin-4-yl)-3′-fluoro-[2,4′-bipyridin]-5-ol 4hydrochloride], the GI50 in the assay with NCI-H23 was found to be 170 nM; with HCT116, 60 nM; in the assay with T98G, 140 nM; in the assay with U-87MG it was 90 nM; in the assay on A549, 820 nM.
